pIC50: −log10 of the molar value.
Target: RAF proto-oncogene serine/threonine-protein kinase (Homo sapiens, UniProt P04049)
Assay: Inhibition of Raf-1

Sequence of RAF proto-oncogene serine/threonine-protein kinase (P04049 whole entry): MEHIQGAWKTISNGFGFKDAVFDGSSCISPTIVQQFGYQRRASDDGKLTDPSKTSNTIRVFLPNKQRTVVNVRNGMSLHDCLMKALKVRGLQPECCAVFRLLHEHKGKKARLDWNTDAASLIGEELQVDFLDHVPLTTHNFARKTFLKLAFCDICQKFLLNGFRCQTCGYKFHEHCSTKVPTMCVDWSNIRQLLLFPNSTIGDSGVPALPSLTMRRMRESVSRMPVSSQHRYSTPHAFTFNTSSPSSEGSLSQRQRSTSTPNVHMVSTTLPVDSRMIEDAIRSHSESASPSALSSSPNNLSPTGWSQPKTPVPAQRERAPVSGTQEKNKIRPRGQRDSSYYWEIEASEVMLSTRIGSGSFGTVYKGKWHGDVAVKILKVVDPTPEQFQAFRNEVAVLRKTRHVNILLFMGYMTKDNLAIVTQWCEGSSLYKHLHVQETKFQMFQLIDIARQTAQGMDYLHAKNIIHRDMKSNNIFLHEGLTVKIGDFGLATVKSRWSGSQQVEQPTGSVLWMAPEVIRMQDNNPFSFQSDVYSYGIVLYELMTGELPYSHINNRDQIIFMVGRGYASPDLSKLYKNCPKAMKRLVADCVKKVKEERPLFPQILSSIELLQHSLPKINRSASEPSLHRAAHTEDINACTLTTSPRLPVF

| Compound | pIC50 |
| --- | --- |
| COC(=O)c1c(NC(=O)Nc2ccc(C)cc2)cc(C(C)(C)C)n1C | 5.30 |
| CC(C)(C)c1cc(NC(=O)Nc2ccc(Oc3ccc(C(=O)O)cc3)cc2)no1 | 5.36 |
| COC(=O)c1sc(C(C)(C)C)cc1NC(=O)Nc1ccc(O)cc1 | 4.74 |
| O=C(Nc1ccc(Oc2ccnc(C(=O)Nc3ccc(N4CCOCC4)cc3)c2)cc1)Nc1ccc(Cl)c(C(F)(F)F)c1 | 6.80 |
| CC(=O)Nc1cccc(Oc2ccc(NC(=O)Nc3cc(C(C)(C)C)on3)cc2C(F)(F)F)c1 | 5.00 |
| Cc1c(NC(=O)Nc2cc(C(C)(C)C)on2)ccc(Oc2ccccc2)c1C | 6.19 |
| CNS(=O)(=O)c1cccc(Oc2ccc(NC(=O)Nc3cc(C(C)(C)C)on3)cc2)c1 | 5.12 |
| CN(C)c1ccc(NC(=O)c2cc(Oc3ccc(NC(=O)Nc4ccc(Cl)c(C(F)(F)F)c4)cc3)ccn2)cc1 | 6.64 |
| CC(C)(C)c1cc(NC(=O)Nc2ccc(Cc3ccncc3)cc2)no1 | 6.23 |
| CC(C)(C)c1cc(NC(=O)Nc2ccc(C(O)c3ccncc3)cc2)no1 (stereo not given) | 5.82 |
| CNC(=O)c1ccc(Oc2ccc(NC(=O)Nc3cc(C(C)(C)C)on3)cc2)cc1 | 5.96 |
| Cn1nc(C(C)(C)C)cc1NC(=O)Nc1ccc(Oc2ccncc2)cc1 | 6.10 |
| CC(C)(C)c1cccc(NC(=O)Nc2ccc(Oc3ccncc3)cc2)c1 | 6.06 |
| COc1c(Cl)cccc1NC(=O)Nc1ccc(Oc2ccncc2)cc1 | 5.57 |
| COc1cc([N+](=O)[O-])ccc1NC(=O)Nc1ccc(Oc2ccncc2)cc1 | 5.36 |
| COc1cccc(Oc2ccc(NC(=O)Nc3cc(C(C)(C)C)on3)cc2)c1 | 6.15 |
| CC(=O)c1cccc(Oc2ccc(NC(=O)Nc3cc(C(C)(C)C)on3)cc2)c1 | 6.09 |
| COc1cccc(NC(=O)Nc2ccc(Oc3ccncc3)cc2)c1 | 6.36 |
| CCNC(=O)c1cc(Oc2ccc(NC(=O)Nc3cc(C(F)(F)F)c(Cl)cc3OC)cc2)ccn1 | 7.06 |
| Cc1cc(Oc2ccccc2)ccc1NC(=O)Nc1cc(C(C)(C)C)on1 | 5.85 |
| CC(C)(C)c1cc(NC(=O)Nc2ccc(Oc3ccncc3)cc2)on1 | 6.92 |
| CC(C)(C)c1cc(NC(=O)Nc2ccc(Oc3ccccc3)c(C(F)(F)F)c2)no1 | 5.02 |
| COc1ccc(Oc2ccc(NC(=O)Nc3cc(C(C)(C)C)on3)cc2)cc1 | 6.30 |
| Cc1cccc(Oc2ccc(NC(=O)Nc3cc(C(C)(C)C)on3)cc2)c1 | 6.00 |
| O=C(Nc1ccc(Oc2ccnc(C(=O)Nc3cccnc3)c2)cc1)Nc1ccc(Cl)c(C(F)(F)F)c1 | 7.36 |

Source: ChEMBL document CHEMBL1138576, “Virtual screening for Raf-1 kinase inhibitors based on pharmacophore model of substituted ureas” (Eur J Med Chem, 2009)
